Where two headings read alike, the source gives them in different places.
Legend:
BRAF = biological target: T1, BRAF (Homo sapiens, UniProt P15056); experiment: In vitro kinase assay (Z'-LYTE, Invitrogen); assay type: biochemical; conditions: compound at 100 nM, ATP Km apparent, read-out: % of inhibition of the kinase compared to the control
T1 construct: purchased Invitrogen
Method in brief: (§1)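 Kinase and dual-fluorophore peptide are combined with ATP at its apparent Km in HEPES pH 7.5 buffer containing MgCl2, EGTA and BRIJ-35, plus compound at 100 nM. Development protease then cleaves unphosphorylated peptide, and the emission ratio gives inhibition.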

PDGFRA (PDGFR alpha) = biological target: T2, PDGFRA (PDGFR alpha) (Homo sapiens, UniProt P16234); experiment: In vitro kinase assay (Z'-LYTE, Invitrogen); assay type: biochemical; conditions: compound at 100 nM, ATP Km apparent, read-out: % of inhibition of the kinase compared to the control
T2 construct: purchased Invitrogen
Method in brief: as §1

SRC = biological target: T3, SRC (Homo sapiens, UniProt P12931); experiment: In vitro kinase assay (Z'-LYTE, Invitrogen); assay type: biochemical; conditions: compound at 100 nM, ATP Km apparent, read-out: % of inhibition of the kinase compared to the control
T3 construct: purchased Invitrogen
T3 sequence (P12931 whole entry): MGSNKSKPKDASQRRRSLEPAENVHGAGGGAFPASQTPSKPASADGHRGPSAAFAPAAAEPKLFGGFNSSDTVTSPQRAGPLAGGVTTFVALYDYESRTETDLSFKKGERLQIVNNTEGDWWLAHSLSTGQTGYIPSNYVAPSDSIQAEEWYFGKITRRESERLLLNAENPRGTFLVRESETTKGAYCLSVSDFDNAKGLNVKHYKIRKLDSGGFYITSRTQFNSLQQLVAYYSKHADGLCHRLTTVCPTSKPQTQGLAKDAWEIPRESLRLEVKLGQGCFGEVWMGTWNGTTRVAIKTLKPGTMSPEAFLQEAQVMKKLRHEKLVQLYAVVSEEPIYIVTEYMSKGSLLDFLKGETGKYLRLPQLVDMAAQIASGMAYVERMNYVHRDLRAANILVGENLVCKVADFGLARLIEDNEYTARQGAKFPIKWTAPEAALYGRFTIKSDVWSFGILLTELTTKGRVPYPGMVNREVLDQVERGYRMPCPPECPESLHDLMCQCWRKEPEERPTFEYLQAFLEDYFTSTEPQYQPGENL
Method in brief: as §1

KDR (VEGFR2) = biological target: T4, KDR (VEGFR2) (Homo sapiens, UniProt P35968); experiment: In vitro kinase assay (Z'-LYTE, Invitrogen); assay type: biochemical; conditions: compound at 100 nM, ATP Km apparent, read-out: % of inhibition of the kinase compared to the control
T4 construct: purchased Invitrogen
T4 sequence (P35968 20-1356): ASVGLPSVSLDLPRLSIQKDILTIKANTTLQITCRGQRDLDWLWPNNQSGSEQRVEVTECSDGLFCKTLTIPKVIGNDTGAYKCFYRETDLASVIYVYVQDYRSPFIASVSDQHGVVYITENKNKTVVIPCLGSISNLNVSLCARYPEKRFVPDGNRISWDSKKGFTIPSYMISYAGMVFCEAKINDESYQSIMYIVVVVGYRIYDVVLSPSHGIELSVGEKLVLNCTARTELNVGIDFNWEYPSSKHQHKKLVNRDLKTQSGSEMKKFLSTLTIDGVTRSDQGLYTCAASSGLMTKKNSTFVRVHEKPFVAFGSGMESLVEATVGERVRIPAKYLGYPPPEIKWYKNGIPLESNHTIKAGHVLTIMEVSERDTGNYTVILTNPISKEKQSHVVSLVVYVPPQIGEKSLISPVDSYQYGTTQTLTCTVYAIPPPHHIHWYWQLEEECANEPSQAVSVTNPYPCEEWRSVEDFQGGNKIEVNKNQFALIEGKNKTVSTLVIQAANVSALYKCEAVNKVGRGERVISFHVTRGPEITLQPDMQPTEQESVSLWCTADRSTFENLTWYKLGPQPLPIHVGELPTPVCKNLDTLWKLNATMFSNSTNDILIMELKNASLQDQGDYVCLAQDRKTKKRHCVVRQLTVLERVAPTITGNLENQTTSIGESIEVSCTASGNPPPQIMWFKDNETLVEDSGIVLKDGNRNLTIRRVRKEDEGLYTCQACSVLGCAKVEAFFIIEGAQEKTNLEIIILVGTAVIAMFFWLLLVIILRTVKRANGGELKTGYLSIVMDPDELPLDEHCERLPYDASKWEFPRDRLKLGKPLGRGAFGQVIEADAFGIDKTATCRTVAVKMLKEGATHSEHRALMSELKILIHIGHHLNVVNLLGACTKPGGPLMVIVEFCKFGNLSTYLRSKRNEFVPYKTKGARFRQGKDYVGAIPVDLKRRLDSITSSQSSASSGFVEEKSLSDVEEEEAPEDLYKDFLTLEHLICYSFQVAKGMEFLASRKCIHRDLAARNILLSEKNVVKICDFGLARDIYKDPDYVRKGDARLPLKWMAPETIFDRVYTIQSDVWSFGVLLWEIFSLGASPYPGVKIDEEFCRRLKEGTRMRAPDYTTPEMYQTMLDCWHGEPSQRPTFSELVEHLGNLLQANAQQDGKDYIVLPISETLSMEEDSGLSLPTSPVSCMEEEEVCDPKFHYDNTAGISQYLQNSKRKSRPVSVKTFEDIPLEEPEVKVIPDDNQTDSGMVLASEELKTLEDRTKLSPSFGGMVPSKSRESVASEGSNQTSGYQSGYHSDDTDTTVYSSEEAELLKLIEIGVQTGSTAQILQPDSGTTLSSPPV
Method in brief: as §1

EGFR (ErbB1) = biological target: T5, EGFR (ErbB1) (Homo sapiens, UniProt P00533); experiment: In vitro kinase assay (Z'-LYTE, Invitrogen); assay type: biochemical; conditions: compound at 100 nM, ATP Km apparent, read-out: % of inhibition of the kinase compared to the control
T5 construct: purchased Invitrogen
T5 sequence (P00533 25-1210): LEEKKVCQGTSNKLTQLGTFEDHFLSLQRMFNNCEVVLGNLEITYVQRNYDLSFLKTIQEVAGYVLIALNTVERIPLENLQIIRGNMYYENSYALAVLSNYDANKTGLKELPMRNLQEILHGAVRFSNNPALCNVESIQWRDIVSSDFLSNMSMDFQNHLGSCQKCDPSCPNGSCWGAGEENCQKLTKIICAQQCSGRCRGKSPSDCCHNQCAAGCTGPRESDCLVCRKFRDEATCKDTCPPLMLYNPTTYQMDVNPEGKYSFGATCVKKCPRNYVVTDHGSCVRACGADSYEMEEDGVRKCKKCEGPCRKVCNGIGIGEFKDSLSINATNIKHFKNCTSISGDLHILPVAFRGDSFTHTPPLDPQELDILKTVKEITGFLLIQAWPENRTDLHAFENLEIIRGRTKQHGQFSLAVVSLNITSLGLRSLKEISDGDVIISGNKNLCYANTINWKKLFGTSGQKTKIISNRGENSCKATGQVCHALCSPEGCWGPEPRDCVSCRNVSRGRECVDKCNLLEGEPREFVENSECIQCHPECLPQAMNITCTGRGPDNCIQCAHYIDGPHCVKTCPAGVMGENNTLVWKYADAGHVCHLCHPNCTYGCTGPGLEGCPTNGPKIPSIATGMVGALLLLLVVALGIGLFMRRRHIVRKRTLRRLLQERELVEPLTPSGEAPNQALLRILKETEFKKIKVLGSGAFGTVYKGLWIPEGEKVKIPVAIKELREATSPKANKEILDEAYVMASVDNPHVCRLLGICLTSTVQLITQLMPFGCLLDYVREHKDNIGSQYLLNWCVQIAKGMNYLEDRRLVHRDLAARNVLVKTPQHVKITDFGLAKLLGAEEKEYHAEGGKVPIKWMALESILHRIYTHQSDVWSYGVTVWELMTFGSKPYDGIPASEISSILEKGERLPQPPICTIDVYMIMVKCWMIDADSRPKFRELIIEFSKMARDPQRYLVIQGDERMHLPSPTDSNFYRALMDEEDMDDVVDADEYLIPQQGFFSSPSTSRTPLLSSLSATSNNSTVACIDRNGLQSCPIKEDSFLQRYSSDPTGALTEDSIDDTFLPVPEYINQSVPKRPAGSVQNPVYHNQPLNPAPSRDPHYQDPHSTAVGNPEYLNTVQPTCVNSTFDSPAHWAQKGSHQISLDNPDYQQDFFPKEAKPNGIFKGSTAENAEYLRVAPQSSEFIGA
Method in brief: as §1

FGFR2 = biological target: T6, FGFR2 (Homo sapiens, UniProt P21802); experiment: In vitro kinase assay (Z'-LYTE, Invitrogen); assay type: biochemical; conditions: compound at 100 nM, ATP Km apparent, read-out: % of inhibition of the kinase compared to the control
T6 construct: purchased Invitrogen
T6 sequence (P21802 22-821): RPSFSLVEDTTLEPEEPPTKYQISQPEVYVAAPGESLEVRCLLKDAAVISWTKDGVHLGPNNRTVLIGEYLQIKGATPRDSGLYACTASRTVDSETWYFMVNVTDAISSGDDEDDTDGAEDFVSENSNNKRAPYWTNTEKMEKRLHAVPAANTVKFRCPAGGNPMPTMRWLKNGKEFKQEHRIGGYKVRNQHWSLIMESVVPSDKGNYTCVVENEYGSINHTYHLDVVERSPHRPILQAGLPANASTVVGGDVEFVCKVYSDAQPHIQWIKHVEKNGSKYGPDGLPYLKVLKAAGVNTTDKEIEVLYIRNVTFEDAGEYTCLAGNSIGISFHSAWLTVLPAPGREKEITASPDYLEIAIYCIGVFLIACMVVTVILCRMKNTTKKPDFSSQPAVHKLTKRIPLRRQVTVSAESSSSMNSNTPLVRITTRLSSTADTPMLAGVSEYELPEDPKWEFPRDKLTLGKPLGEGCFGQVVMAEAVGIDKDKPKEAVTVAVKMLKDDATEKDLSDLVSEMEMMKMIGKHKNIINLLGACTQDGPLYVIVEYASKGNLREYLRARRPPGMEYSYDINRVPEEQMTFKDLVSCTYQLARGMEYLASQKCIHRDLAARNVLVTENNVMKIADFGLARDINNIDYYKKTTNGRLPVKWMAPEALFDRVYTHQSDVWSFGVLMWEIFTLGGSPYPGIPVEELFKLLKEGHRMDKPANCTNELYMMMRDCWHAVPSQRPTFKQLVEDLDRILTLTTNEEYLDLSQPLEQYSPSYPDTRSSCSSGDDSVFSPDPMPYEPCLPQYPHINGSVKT
Method in brief: as §1

HuH7 cell line = experiment: In vitro cell proliferation assay (MTT); assay type: cell-based; conditions: Homo sapiens, Huh-7, HuH7, 72 hr, read-out: EC50, anti-proliferative activity
Method in brief: (§2)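 MTT read-out after 72 hr compound exposure, 10 nM–3 μM, duplicate wells. Seeding: 5×10^3 cells/well for cancer lines, 1×10^4 cells/well for HRMEC. EC50 from sigmoidal curve fit; DMSO = 0%, 1% SDS = 100%.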

HRMEC cells = experiment: In vitro cell proliferation assay (MTT); assay type: cell-based; conditions: 72 hr, read-out: EC50, anti-proliferative activity
Method in brief: as §2

MDA-MB-231 cell line = experiment: In vitro cell proliferation assay (MTT); assay type: cell-based; conditions: Homo sapiens, MDA-MB-231, 72 hr, read-out: EC50, anti-proliferative activity
Method in brief: as §2

HuH6 Clone 5 cell line = experiment: In vitro cell proliferation assay (MTT); assay type: cell-based; conditions: HUH-6-clone5, HuH6 Clone 5, 72 hr, read-out: EC50, anti-proliferative activity
Method in brief: as §2

HUVEC cells = experiment: In vitro cell proliferation assay (MTT); assay type: cell-based; conditions: Homo sapiens, 72 hr, read-out: EC50, anti-proliferative activity
Method in brief: as §2

HeLa cell line = experiment: In vitro cell proliferation assay (MTT); assay type: cell-based; conditions: Homo sapiens, 72 hr, 100 nM < EC50 < 1 μM, read-out: EC50, anti-proliferative activity
Method in brief: as §2

HuCCT1 cell line = experiment: In vitro cell proliferation assay (MTT); assay type: cell-based; conditions: Homo sapiens, HuCCT-1, HuCCT1, 72 hr, read-out: EC50, anti-proliferative activity
Method in brief: as §2

A549 cell line = experiment: In vitro cell proliferation assay (MTT); assay type: cell-based; conditions: Homo sapiens, A549, 72 h, read-out: EC50, anti-proliferative activity
Method in brief: as §2

HepG2 cell line = experiment: In vitro cell proliferation assay (MTT); assay type: cell-based; conditions: Homo sapiens, HepG2, 72 hr, read-out: EC50, anti-proliferative activity
Method in brief: as §2

EGFR (ErbB1) T790M L858R = biological target: T7, EGFR (ErbB1) T790M L858R (Homo sapiens, UniProt P00533, L858R/T790M); experiment: In vitro kinase assay (Z'-LYTE, Invitrogen); assay type: biochemical; conditions: compound at 100 nM, ATP Km apparent, read-out: % of inhibition of the kinase compared to the control
T7 construct: purchased Invitrogen
Method in brief: as §1

HT29 cell line = experiment: In vitro cell proliferation assay (MTT); assay type: cell-based; conditions: Homo sapiens, HT-29, HT29, 72 hr, read-out: EC50, anti-proliferative activity
Method in brief: as §2

H1975 cell line = experiment: In vitro cell proliferation assay (MTT); assay type: cell-based; conditions: Homo sapiens, NCI-H1975, H1975, 72 hr, read-out: EC50, anti-proliferative activity
Method in brief: as §2

T1 sequence (P15056 whole entry): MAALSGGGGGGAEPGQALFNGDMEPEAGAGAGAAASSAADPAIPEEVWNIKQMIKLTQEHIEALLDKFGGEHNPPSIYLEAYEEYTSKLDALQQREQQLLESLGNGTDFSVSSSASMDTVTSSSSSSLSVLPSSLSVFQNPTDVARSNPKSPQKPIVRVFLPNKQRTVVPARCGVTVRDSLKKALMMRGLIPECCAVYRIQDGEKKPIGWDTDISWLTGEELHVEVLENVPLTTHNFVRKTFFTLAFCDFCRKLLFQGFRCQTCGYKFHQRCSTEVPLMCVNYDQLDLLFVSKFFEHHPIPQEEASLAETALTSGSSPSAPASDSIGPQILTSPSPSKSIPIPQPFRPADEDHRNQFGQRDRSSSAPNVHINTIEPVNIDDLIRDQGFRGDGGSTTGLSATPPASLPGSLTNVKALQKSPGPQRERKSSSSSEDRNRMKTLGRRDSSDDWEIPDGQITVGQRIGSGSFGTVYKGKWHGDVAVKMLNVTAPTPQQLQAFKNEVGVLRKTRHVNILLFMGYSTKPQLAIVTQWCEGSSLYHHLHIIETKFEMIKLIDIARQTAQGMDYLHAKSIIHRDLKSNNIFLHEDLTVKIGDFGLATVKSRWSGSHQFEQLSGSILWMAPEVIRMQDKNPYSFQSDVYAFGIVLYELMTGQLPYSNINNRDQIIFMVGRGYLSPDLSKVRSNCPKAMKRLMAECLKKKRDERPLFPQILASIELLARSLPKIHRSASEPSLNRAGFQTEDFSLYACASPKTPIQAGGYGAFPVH

| Compound | inhibition at 0.1 µM (BRAF) [%] | inhibition at 0.1 µM (PDGFRA (PDGFR alpha)) [%] | inhibition at 0.1 µM (SRC) [%] | inhibition at 0.1 µM (KDR (VEGFR2)) [%] | inhibition at 0.1 µM (EGFR (ErbB1)) [%] | inhibition at 0.1 µM (FGFR2) [%] | EC50 (HUVEC cells; EC50 ≦ 100 nM) [nM] | EC50 (HeLa cell line) [nM] | EC50 (HuCCT1 cell line; EC50 ≧ 1 μM) [nM] | EC50 (A549 cell line; EC50 ≦ 100 nM) [nM] | EC50 (HepG2 cell line; 100 nM < EC50 < 1 μM) [nM] | inhibition at 0.1 µM (EGFR (ErbB1) T790M L858R) [%] | EC50 (HRMEC cells; EC50 ≧ 1 μM) [nM] | EC50 (HT29 cell line; EC50 ≧ 1 μM) [nM] | EC50 (A549 cell line; EC50 ≧ 1 μM) [nM] | EC50 (HepG2 cell line; EC50 ≧ 1 μM) [nM] | EC50 (H1975 cell line; EC50 ≧ 1 μM) [nM] | EC50 (HuH7 cell line; 100 nM < EC50 < 1 μM) [nM] | further results |
| --- | --- | --- | --- | --- | --- | --- | --- | --- | --- | --- | --- | --- | --- | --- | --- | --- | --- | --- | --- |
| CC(=O)c1cc2cc(CCc3cc(NC(=O)c4ccc(CN5CCN(C)CC5)c(C(F)(F)F)c4)ccc3C)cnc2[nH]1 [OR0797, N-{3-[2-(2-Acetyl-1H-pyrrolo[2,3-b]pyridin-5-yl)-ethyl]-4-methyl-phenyl}-4-(4-methyl-piperazin-1-ylmethyl)-3-trifluoromethyl-benzamide] | ≥ 50 | ≥ 50 | ≥ 50 | ≥ 50 | ≥ 50 | ≥ 50 | ≤ 100 | 100 to 1000 | ≥ 1000 | ≤ 100 | 100 to 1000 | – | – | – | – | – | – | – | EC50 (HuH7 cell line; EC50 ≦ 100 nM): ≤ 100 nM; EC50 (HRMEC cells; EC50 ≦ 100 nM): ≤ 100 nM; EC50 (MDA-MB-231 cell line; EC50 ≦ 100 nM): ≤ 100 nM; EC50 (HuH6 Clone 5 cell line; 100 nM < EC50 < 1 μM): 100 to 1000 nM |
| COC(=O)c1cc2cc(CNc3cc(NC(=O)c4ccc(CN5CCN(C)CC5)cc4)ccc3C)cnc2[nH]1 [OR0746, 5-({2-Methyl-5-[4-(4-methyl-piperazin-1-ylmethyl)-benzoylamino]-phenylamino}-methyl)-1H-pyrrolo[2,3-b]pyridine-2-carboxylic acid methyl ester] | < 50 | ≥ 50 | < 50 | < 50 | ≥ 50 | < 50 | – | – | ≥ 1000 | – | – | < 50 | ≥ 1000 | ≥ 1000 | ≥ 1000 | ≥ 1000 | ≥ 1000 | – | EC50 (HUVEC cells; EC50 ≧ 1 μM): ≥ 1000 nM |
| COC(=O)c1cc2cc(C=Cc3cc(NC(=O)c4ccc(CN5CCN(C)CC5)cc4)ccc3C)cnc2[nH]1 [OR0776, 5-(-2-{2-Methyl-5-[4-(4-methyl-piperazin-1-ylmethyl)-benzoylamino]-phenyl}-vinyl)-1H-pyrrolo[2,3-b]pyridine-2-carboxylic acid methyl ester] | < 50 | ≥ 50 | < 50 | ≥ 50 | < 50 | < 50 | – | – | – | – | – | – | ≥ 1000 | – | – | – | – | – | – |
| COC(=O)c1cc2cc(CCc3cc(NC(=O)c4ccc(CN5CCN(C)CC5)c(C(F)(F)F)c4)ccc3C)cnc2[nH]1 [OR0748, 5-(2-{2-Methyl-5-[4-(4-methyl-piperazin-1-ylmethyl)-3-trifluoromethyl-benzoylamino]-phenyl}-ethyl)-1H-pyrrolo[2,3-b]pyridine-2-carboxylic acid methyl ester] | ≥ 50 | ≥ 50 | ≥ 50 | ≥ 50 | ≥ 50 | ≥ 50 | ≤ 100 | 100 to 1000 | – | ≤ 100 | 100 to 1000 | ≥ 50 | – | ≥ 1000 | – | – | – | 100 to 1000 | EC50 (MDA-MB-231 cell line; EC50 ≦ 100 nM): ≤ 100 nM; EC50 (HuH6 Clone 5 cell line; EC50 ≧ 1 μM): ≥ 1000 nM; EC50 (HuCCT1 cell line; 100 nM < EC50 < 1 μM): 100 to 1000 nM; EC50 (A549 cell line; 100 nM < EC50 < 1 μM): 100 to 1000 nM; EC50 (H1975 cell line; 100 nM < EC50 < 1 μM): 100 to 1000 nM |
| COC(=O)c1cc2cc(COc3cc(NC(=O)c4ccc(CN5CCN(C)CC5)c(C(F)(F)F)c4)ccc3C)cnc2[nH]1 [OR0749, 5-{2-Methyl-5-[4-(4-methyl-piperazin-1-ylmethyl)-3-trifluoromethyl-benzoylamino]-phenoxymethyl}-1H-pyrrolo[2,3-b]pyridine-2-carboxylic acid methyl ester] | < 50 | ≥ 50 | ≥ 50 | ≥ 50 | ≥ 50 | ≥ 50 | – | – | ≥ 1000 | – | – | < 50 | – | – | ≥ 1000 | ≥ 1000 | ≥ 1000 | 100 to 1000 | EC50 (HT29 cell line; 100 nM < EC50 < 1 μM): 100 to 1000 nM; EC50 (HuH6 Clone 5 cell line; EC50 ≧ 1 μM): ≥ 1000 nM; EC50 (HUVEC cells; 100 nM < EC50 < 1 μM): 100 to 1000 nM |
| CC(=O)c1cc2cc(CCc3cc(NC(=O)c4ccc(CN5CCC(N(C)C)C5)c(C(F)(F)F)c4)ccc3C)cnc2[nH]1 (centres unmarked) [OR0798, N-{3-[2-(2-Acetyl-1H-pyrrolo[2,3-b]pyridin-5-yl)-ethyl]-4-methyl-phenyl}-4-(3-dimethylamino-pyrrolidin-1-ylmethyl)-3-trifluoromethyl-benzamide] | ≥ 50 | ≥ 50 | ≥ 50 | ≥ 50 | ≥ 50 | ≥ 50 | ≤ 100 | 100 to 1000 | ≥ 1000 | ≤ 100 | 100 to 1000 | – | – | – | – | – | – | 100 to 1000 | EC50 (HRMEC cells; 100 nM < EC50 < 1 μM): 100 to 1000 nM; EC50 (MDA-MB-231 cell line; 100 nM < EC50 < 1 μM): 100 to 1000 nM; EC50 (HuH6 Clone 5 cell line; 100 nM < EC50 < 1 μM): 100 to 1000 nM |
| COC(=O)c1cc2cc(COc3cc(NC(=O)c4ccc(CN5CCN(C)CC5)cc4)ccc3C)cnc2[nH]1 [OR0779, 5-{2-Methyl-5-[4-(4-methyl-piperazin-1-ylmethyl)-benzoylamino]-phenoxymethyl}-1H-pyrrolo[2,3-b]pyridine-2-carboxylic acid methyl ester] | < 50 | ≥ 50 | ≥ 50 | ≥ 50 | ≥ 50 | < 50 | – | – | ≥ 1000 | – | – | < 50 | ≥ 1000 | ≥ 1000 | ≥ 1000 | ≥ 1000 | ≥ 1000 | – | EC50 (HUVEC cells; EC50 ≧ 1 μM): ≥ 1000 nM |
